We go through three molecules from ChEMBL document CHEMBL5036307, “Antimalarial Quinacrine and Chloroquine Lose Their Activity by Decreasing Cationic Amphiphilic Structure with a Slight Decrease in pH” (J Med Chem, 2021).

The subject of experiment [1] is Saccharomyces cerevisiae. Kind of experiment: Antimicrobial activity against Saccharomyces cerevisiae BY4741 assessed as inhibition of microbial growth at pH 8 in presence of glucose measured after 48 hrs by visual analysis. The experiment is classed as functional.
Experiment [2] deals with Saccharomyces cerevisiae. Kind of experiment: Antimicrobial activity against Saccharomyces cerevisiae BY4741 assessed as inhibition of microbial growth at 60 mM at pH 6 in presence of glucose measured after 48 hrs by visual analysis. The experiment is classed as functional, organism-based.
Experiment [3] has as its system Saccharomyces cerevisiae. Kind of experiment: Ratio of antimicrobial activity against Saccharomyces cerevisiae BY4741 at pH 7 to antimicrobial activity against Saccharomyces cerevisiae BY4741 at pH 8. The experiment is classed as functional.
The subject of experiment [4] is Saccharomyces cerevisiae. In words: Antimicrobial activity against Saccharomyces cerevisiae BY4741 assessed as inhibition of microbial growth at pH 7 in presence of glucose measured after 48 hrs by visual analysis. In kind it is functional.
The nature of experiment [5]: Inhibition HXT2 in Saccharomyces cerevisiae using 2DG as substrate assessed as reduction in 2DG uptake at pH 7.5 preincubated for 10 min followed by substrate addition and measured after 10 min by glucose uptake-Glo assay.
For experiment [6], the system named is Saccharomyces cerevisiae. Kind of experiment: Inhibition HXT2 in Saccharomyces cerevisiae using 2DG as substrate assessed as reduction in 2DG uptake by measuring Km at 75 uM at pH 7.5 by Michaelis-Menten analysis (Rvb= 0.76 +/- 0.03 mM).
The test system of experiment [7] is Saccharomyces cerevisiae. In words: Inhibition HXT2 in Saccharomyces cerevisiae using 2DG as substrate assessed as reduction in 2DG uptake by measuring decrease in Vmax at 125 uM at pH 7.5 by Michaelis-Menten analysis (Rvb= 211 +/- 9 nmol/min).
The test system of experiment [8] is Saccharomyces cerevisiae. Kind of experiment: Inhibition HXT2 in Saccharomyces cerevisiae using 2DG as substrate assessed as reduction in 2DG uptake by measuring Km at 125 uM at pH 7.5 by Michaelis-Menten analysis (Rvb= 0.76 +/- 0.03 mM).
The test system of experiment [9] is Saccharomyces cerevisiae. In words: Antimicrobial activity against Saccharomyces cerevisiae BY4741 assessed as inhibition of microbial growth at pH 6 in presence of glucose measured after 48 hrs by visual analysis. The experiment is classed as functional.
Experiment [10] deals with Saccharomyces cerevisiae. Kind of experiment: Inhibition HXT2 in Saccharomyces cerevisiae using 2DG as substrate assessed as reduction in 2DG uptake by measuring decrease in Vmax at 75 uM at pH 7.5 by Michaelis-Menten analysis (Rvb= 211 +/- 9 nmol/min).
The subject of experiment [11] is Saccharomyces cerevisiae. In words: Ratio of antimicrobial activity against Saccharomyces cerevisiae BY4741 at pH 6 to antimicrobial activity against Saccharomyces cerevisiae BY4741 at pH 8. The experiment is classed as functional.
Experiment [12] is described as follows: Inhibition HXT2 in Saccharomyces cerevisiae using 2DG as substrate assessed as inhibition of 2DG uptake at pH 6 preincubated for 10 min followed by substrate addition and measured after 10 min by glucose uptake-Glo assay.
Experiment [13] relates to Saccharomyces cerevisiae BY4741. Kind of experiment: Inhibition of actin polarization in Saccharomyces cerevisiae BY4741 at pH 6 incubated for 30 mins in presence of 2% glucose by rhodamine phalloidin staining based confocal microscopic analysis.
In experiment [14] the test system is Saccharomyces cerevisiae. Kind of experiment: Antimicrobial activity against saccharomyces cerevisiae BY4741 assessed as inhibition of translation initiation by measuring polysme/monosome ratio at 1.5 mM at pH 7.5 incubated for 30 mins in presence of 2% glucose by polysome analysis (Rvb= 1.74). In kind it is functional. The settings on record: 0.5 h.
In experiment [15] the test system is Saccharomyces cerevisiae. Kind of experiment: Antimicrobial activity against Saccharomyces cerevisiae BY4741 assessed as inhibition of microbial growth at 50 mM at pH 5 in presence of glucose measured after 48 hrs by visual analysis. In kind it is functional, organism-based.
In experiment [16] the test system is Saccharomyces cerevisiae. Kind of experiment: Inhibition HXT2 in Saccharomyces cerevisiae using 2DG as substrate assessed as reduction in 2DG uptake by measuring Km at 0.6 mM at pH 7.5 by Michaelis-Menten analysis (Rvb= 0.76 +/- 0.08 mM).
For experiment [17], the system named is Cell membrane. Kind of experiment: Induction of membrane disruption in Saccharomyces cerevisiae BY4741 assessed as cell lysis by measuring increase in extracellular ATP level at pH 7.5 in presence of 8% glucose incubated for 30 mins.
Experiment [18] concerns Saccharomyces cerevisiae. In words: Inhibition HXT2 in Saccharomyces cerevisiae using 2DG as substrate assessed as reduction in 2DG uptake by measuring decrease in Vmax at 0.2 mM at pH 7.5 by Michaelis-Menten analysis (Rvb= 208 +/- 7 nmol/min).
Experiment [19] concerns Saccharomyces cerevisiae. In words: Antimicrobial activity against saccharomyces cerevisiae BY4741 assessed as inhibition of translation initiation by measuring polysme/monosome ratio at 1.5 mM at pH 7.5 incubated for 30 mins in presence of 8% glucose by polysome analysis (Rvb= 1.94). The experiment is classed as functional. The note with it: 0.5 h.
Experiment [20] has as its system Saccharomyces cerevisiae. Kind of experiment: Inhibition HXT2 in Saccharomyces cerevisiae using 2DG as substrate assessed as reduction in 2DG uptake by measuring Km at 0.2 mM at pH 7.5 by Michaelis-Menten analysis (Rvb=0.76 +/- 0.08 mM).
A short description of experiment [21]: Inhibition of actin polarization in Saccharomyces cerevisiae BY4741 at pH 7.5 incubated for 30 mins in presence of 2% glucose by rhodamine phalloidin staining based confocal microscopic analysis.
For experiment [22], the system named is Saccharomyces cerevisiae. Kind of experiment: Inhibition of endocytosis in Saccharomyces cerevisiae BY4741 from plasma to vacuoles assessed as formation of discrete granules at 25 mM incubated for 2 hrs by FM4-64 staining based analysis. The experiment is classed as functional, organism-based.
Experiment [23] relates to Cell membrane. Kind of experiment: Induction of membrane disruption in Saccharomyces cerevisiae BY4741 at 50 mM incubated for 2 hrs by FM4-64 staining based analysis. The experiment is classed as subcellular.
Experiment [24] can be described thus: Inhibition of actin polarization in Saccharomyces cerevisiae BY4741 at pH 7.5 incubated for 30 mins in presence of 8% glucose by rhodamine phalloidin staining based confocal microscopic analysis.
Experiment [25] relates to Cell membrane. In words: Induction of membrane disruption in Saccharomyces cerevisiae BY4741 assessed as cell lysis by measuring increase in extracellular ATP level at pH 7.5 in presence of 2% glucose incubated for 30 mins.
The subject of experiment [26] is Saccharomyces cerevisiae. Kind of experiment: Inhibition HXT2 in Saccharomyces cerevisiae using 2DG as substrate assessed as reduction in 2DG uptake by measuring decrease in Vmax at 0.6 mM at pH 7.5 by Michaelis-Menten analysis (Rvb= 208 +/- 7 nmol/min).

The source made the active and inactive calls. The calls are words filed in the database; no cut-off is given here.

For the molecule `CCN(CC)CCCC(C)Nc1ccnc2cc(Cl)ccc12` (stereo unspecified) [CHLOROQUINE], the MIC (as a rule, the lowest concentration found to suppress growth) in the experiment on Saccharomyces cerevisiae [1] is 520 µM; in the experiment with Saccharomyces cerevisiae [4], 15000 µM. Also, in the experiment with Saccharomyces cerevisiae [2], the result was inactive. Further, in the experiment with Saccharomyces cerevisiae [3], the Ratio is listed as 30.
For `CN(C)CCCN1c2ccccc2Sc2ccc(Cl)cc21` [CHLORPROMAZINE], the IC50 (usually the concentration that gives 50% inhibition) in experiment [5] amounted to 115 µM; in experiment [12] it was 259 µM. Further, the MIC is 15 µM in the experiment on Saccharomyces cerevisiae [1], 250 µM in the experiment on Saccharomyces cerevisiae [9] and 31 µM in the experiment with Saccharomyces cerevisiae [4]. The Michaelis-Menten constant (Km) – broadly, the concentration of substrate that gives half-maximal velocity – with Saccharomyces cerevisiae [6] amounted to 630 µM; in the experiment with Saccharomyces cerevisiae [8] it was 710 µM. The Vmax (usually the top rate of the reaction or transport when substrate is in excess) in the experiment on Saccharomyces cerevisiae [7] was determined as 63 nmol/min; in the experiment with Saccharomyces cerevisiae [10], 126 nmol/min. Moreover, the Ratio is reported as 16 in the experiment on Saccharomyces cerevisiae [11] and 2 with Saccharomyces cerevisiae [3].
With `CCN(CC)CCCC(C)Nc1c2ccc(Cl)cc2nc2ccc(OC)cc12` (stereo unspecified) [QUINACRINE], the inhibition entry in [13] was “inactive”. The Ratio in the experiment on Saccharomyces cerevisiae [14] turned out to be 1.53; with Saccharomyces cerevisiae [19], 1.69; in the experiment on Saccharomyces cerevisiae [11], 600; with Saccharomyces cerevisiae [3], 30. Moreover, the result in the experiment on Saccharomyces cerevisiae [15] was inactive. Further, the Km worked out at 750 µM in the experiment with Saccharomyces cerevisiae [16] and 770 µM in the experiment with Saccharomyces cerevisiae [20]. For the same molecule, the concentration for half-maximal inhibition (IC50) in [5] came to 370 µM; in experiment [21], 1000 µM; in [24], 1600 µM; in experiment [12], 3490 µM. For the same molecule, the MIC with Saccharomyces cerevisiae [1] turned out to be 83 µM; in the experiment on Saccharomyces cerevisiae [9] it was 50000 µM; with Saccharomyces cerevisiae [4], 2.5 µM. Further, the Activity with Cell membrane [17] was determined as 37 mM; with Cell membrane [25], 21.6 mM. The Vmax is 158 nmol/min in the experiment on Saccharomyces cerevisiae [18] and 113 nmol/min in the experiment with Saccharomyces cerevisiae [26]. In the experiment on Saccharomyces cerevisiae [22], the inhibition result was “Active”. Besides, the result in the experiment on Cell membrane [23] was Active.
